What follows are compounds tested on Spontaneous hypertensive rat-derived vascular smooth muscle cells (VSMCs) in thoracic aorta (assay: Inhibition test on vascular smooth muscle cells proliferation (3H-thymidine incorporation)). Conditions: 3H-thymidine incorporation into DNA, 24 hours incubation with compound; read-out: Concentration of 50% inhibitory activity (IC50).
Format: cell-based
Procedure: Thus, the compounds of the present invention have a very potent inhibitory effect on vascular smooth muscle cells proliferation.
Spontaneous hypertensive rat-derived vascular smooth muscle cells (VSMCs) in thoracic aorta were isolated by explant technique. The VSMCs were placed into 96 wells at 5000 cells/well and incubated in DMEM containing 10 % fetal calf serum at 37 °C in 95 % air and 5 % carbon dioxide for 3 days. After the incubation, the medium was replaced with DMEM containing each compound and ^3H-thymidine, and then the VSMCs were incubated. 24 hours later, the incorporation of ^3H-thymidine into DNA was determined and the radioactivity was defined as proliferation inhibitory activity of VSMCs. The activity of each compound was shown as a concentration which reduced the radioactivity of non-treated group by 50 % (IC50).
`COc1ccc(/C=C/C(=O)Nc2ccccc2C(=O)NCCCc2ccccc2)cc1OC` [Compound 20, (E)-2-(3,4-Dimethoxycinnanoylamino)-N-(3-phenylpropyl)benzamide] gave an IC50 of 7 µM. `COc1cc(/C=C/C(=O)Nc2ccccc2C(=O)NCCO)cc(OC)c1OC` [Compound 45, (E)-N-(2-Hydroxyethyl)-2-(3,4,5-trimethoxycinnnamoylamino)benzamide] gave an IC50 of 34 µM. `CCCCNC(=O)c1ccccc1NC(=O)/C=C/c1ccc(OC)c(OC)c1` [Compound 19, (E)-N-Butyl-2-(3,4-dimethoxycinnamoylanino)benzamide] showed an IC50 of 5 µM.

Same assay, conditions: Rattus norvegicus, VSMC; 3H-thymidine incorporation into DNA, 24 hours incubation with compound; read-out: Concentration of 50% inhibitory activity (IC50)
`COc1ccc(/C=C/C(=O)Nc2ccccc2C(=O)NCCO)cc1OC` [Compound 46, (E)-2-(3,4-Dimethoxycinnamoylamino)-N-(2-hydroxyethyl)benzamide] was tested, and the IC50 was 58 µM. In the case of `CCOc1ccc(/C=C/C(=O)Nc2ccccc2C(=O)NCCOCCO)cc1OC` [Compound 44, (E)-2-(4-Ethoxy-3-methoxycinnamoylamino)-N-[2-(2-hydroxyethoxy)ethyl]benzamide], the IC50 is reported as 58 µM. `CCOc1c(OC)cc(/C=C/C(=O)Nc2ccccc2C(N)=O)cc1OC` [Compound 35, (E)-2-(3,5-Dimethoxy-4-ethoxycinnamoylamino)benzamide] showed an IC50 of 61 µM. With `NC(=O)c1ccccc1NC(=O)/C=C/c1cccc(Cl)c1` [Compound 22, (E)-2-(3-Chlorocinnamoylamino)benzamide] the IC50 was 30 µM. `COc1ccc(/C=C/C(=O)Nc2ccccc2C(=O)NCCCCO)cc1OC` [Compound 47, (E)-2-(3,4-Dimethoxycinnamoylamino)-N-(4-hydroxybutyl)benzamide] was tested, and the IC50 was 60 µM. `COc1cc(/C=C/C(=O)Nc2ccccc2C(=O)NCCOCCO)cc(OC)c1OC` [Compound 43, (E)-N-[2-(2-Hydroxyethoxy)ethyl]-2-(3,4,5-trimethoxycinnamoylamino)benzamide] was tested, and the IC50 was 44 µM. With `CC(=O)c1ccc(/C=C/C(=O)Nc2ccccc2C(N)=O)cc1` [Compound 33, (E)-2-(4-Acetylcinnamoylamino)benzamide] the IC50 was 78 µM. `COc1cc(/C=C/C(=O)Nc2ccccc2C(N)=O)cc(OC)c1O` [Compound 69, (E)-2-(3,5-Dimethoxy-4-hydroxycinnamoylamino)benzamide] was tested, and the IC50 was 55 µM. `COc1ccc(/C=C/C(=O)Nc2cc(OC)c(OC)cc2C(N)=O)cc1OC` [Compound 66, (E)-4,5-Dimethoxy-2-(3,4-dimethoxycinnamoylamino)benzamide] showed an IC50 of 13 µM. In the case of `CCOc1ccc(/C=C/C(=O)Nc2ccccc2C(N)=O)cc1` [Compound 9, (E)-2-(4-Ethoxycinnamoylamino)benzamide], the IC50 is reported as 5 µM. In the case of `COc1cccc(/C=C/C(=O)Nc2ccccc2C(N)=O)c1` [Compound 11, (E)-2-(3-Methoxycinnamoylamino)benzamide], the IC50 is reported as 9 µM. Compound `COc1cc(NC(=O)/C=C/c2cc(OC)c(OC)c(OC)c2)c(C(N)=O)cc1OC` [Compound 57, (E)-4,5-Dimethoxy-2-(3,4,5-trimethoxycinnamoylamino)benzamide] has an IC50 of 9 µM. In the case of `CC(C)Oc1cccc(/C=C/C(=O)Nc2ccccc2C(N)=O)c1` [Compound 2, (E)-2-(3-Isopropoxycinnamoylamino)benzamide], the IC50 is reported as 14 µM. For `COc1ccccc1/C=C/C(=O)Nc1ccccc1C(N)=O` [Compound 24, (E)-2-(2-Methoxycinnamoylamino)benzamide], the IC50 was 8 µM. `COc1cc(OC)c(/C=C/C(=O)Nc2ccccc2C(N)=O)c(OC)c1` [Compound 37, (E)-2-(2,4,6-Trimethoxycinnamoylamino)benzamide] was tested, and the IC50 was 100 µM. With `NC(=O)c1ccccc1NC(=O)/C=C/c1cccc(OCc2ccccc2)c1` [Compound 6, (E)-2-(3-Benzyloxycinnamoylamino)benzamide] the IC50 was 9 µM. Compound `COc1ccc(/C=C/C(=O)Nc2ccccc2C(=O)NCCN(C)C)cc1OC` [Compound 39, (E)-2-(3,4-Dimethoxycinnamoylamino)-N-(2-dimethylaminoethyl)benzamide] has an IC50 of 55 µM. In the case of `COc1ccc(OC)c(/C=C/C(=O)Nc2ccccc2C(N)=O)c1` [Compound 13, (E)-2-(2,5-Dimethoxycinnamoylamino)benzamide], the IC50 is reported as 3 µM. In the case of `CCOc1ccccc1/C=C/C(=O)Nc1ccccc1C(N)=O` [Compound 21, (E)-2-(2-Ethoxycinnamoylamino)benzamide], the IC50 is reported as 30 µM. Compound `COc1cc(/C=C/C(=O)Nc2ccccc2C(=O)NCCN(CCO)CCO)cc(OC)c1OC` [Compound 51, (E)-N-[2-[Bis(2-hydroxyethyl)amino]ethyl]-2-(3,4,5-trimethoxycinnamoylamino)benzamide] has an IC50 of 28 µM. `COc1ccc(/C=C/C(=O)Nc2ccccc2C(N)=O)c(OC)c1OC` [Compound 31, (E)-2-(2,3,4-Trimethoxycinnamoylamino)benzamide] gave an IC50 of 54 µM. `CCOc1cc(/C=C/C(=O)Nc2ccccc2C(=O)NCCO)ccc1OC` [Compound 49, (E)-2-(3-Ethoxy-4-methoxycinnamoylamino)-N-(2-hydroxyethyl)benzamide] was tested, and the IC50 was 42 µM. For `NC(=O)c1ccccc1NC(=O)/C=C/c1ccc2c(c1)OCO2` [Compound 30, (E)-2-(3,4-Methylenedioxycinnamoylamino)benzamide], the IC50 was 9 µM. In the case of `COc1cc(/C=C/C(=O)Nc2ccccc2C(N)=O)cc(OC)c1` [Compound 32, (E)-2-(3,5-Dimethoxycinnamoylamino)benzamide], the IC50 is reported as 80 µM. `COc1cc(/C=C/C(=O)Nc2ccccc2C(=O)NCCCCO)cc(OC)c1OC` [Compound 48, (E)-N-(4-Hydroxybutyl)-2-(3,4,5-trimethoxycinnamoylamino)benzamide] gave an IC50 of 42 µM. Work on `COc1ccc(/C=C/C(=O)Nc2ccccc2C(=O)NO)cc1OC` [Compound 60, (E)-2-(3,4-Dimethoxycinnamoylamino)-N-hydroxybenzamide] yielded an IC50 of 36 µM. For `COc1ccc(/C=C/C(=O)Nc2ccccc2C(=O)NCCN(CCO)CCO)cc1OC` [Compound 50, (E)-N-[2-[Bis(2-hydroxyethyl)amino]ethyl]-2-(3,4-dimethoxycinnamoylamino)benzamide], the IC50 was 71 µM. For `COc1cccc(/C=C/C(=O)Nc2ccccc2C(N)=O)c1OC` [Compound 5, (E)-2-(2,3-Dimethoxycinnamoylamino)benzamide], the IC50 was 5 µM. For `NC(=O)c1ccccc1NC(=O)/C=C/c1ccc2c(c1)OCCO2` [Compound 38, (E)-2-(3,4-Ethylenedioxycinnamoylamino)benzamide], the IC50 was 58 µM. For `COc1ccc(NC(=O)/C=C/c2ccc(OC)c(OC)c2)c(C(=O)NCCO)c1` [Compound 62, (E)-2-(3,4-Dimethoxycinnamoylamino)-N-(2-hydroxyethyl)-5-methoxybenzamide], the IC50 was 89 µM. `NC(=O)c1ccccc1NC(=O)/C=C/c1cccc(F)c1` [Compound 23, (E)-2-(3-Fluorocinnamoylamino)benzamide] gave an IC50 of 39 µM. Compound `COc1ccc(/C=C/C(=O)Nc2cc(OC)c(OC)cc2C(=O)NCCO)cc1OC` [Compound 56, (E)-4,5-Dimethoxy-2-(3,4-dimethoxycinnamoylamino)-N-(2-hydroxyethyl)benzamide] has an IC50 of 44 µM. In the case of `CCCCOc1cccc(/C=C/C(=O)Nc2ccccc2C(N)=O)c1` [Compound 7, (E)-2-(3-Butoxycinnamoylamino)benzamide], the IC50 is reported as 86 µM. `COc1cc(/C=C/C(=O)Nc2ccc(O)cc2C(N)=O)cc(OC)c1OC` [Compound 63, (E)-5-Hydroxy-2-(3,4,5-trimethoxycinnamoylamino)benzamide] showed an IC50 of 46 µM. `CNC(=O)c1ccccc1NC(=O)/C=C/c1ccc(OC)c(OC)c1` [Compound 58, (E)-2-(3,4-Dimethoxycinnamoylamino)-N-methylbenzamide] gave an IC50 of 15 µM. In the case of `CCOc1cc(/C=C/C(=O)Nc2ccccc2C(N)=O)ccc1OC` [Compound 16, (E)-2-(3-Ethoxy-4-methoxycinnamoylamino)benzamide], the IC50 is reported as 5 µM. Work on `COc1ccc(C(C#N)=CC(=O)Nc2ccccc2C(N)=O)cc1OC` [Compound 53, 2-(β-Cyano-3,4-dimethoxycinnamoylamino)benzamide] yielded an IC50 of 56 µM. For `COc1ccc(/C=C/C(=O)Nc2ccccc2C(=O)NCCOCCO)cc1OC` [Compound 42, (E)-2-(3,4-Dimethoxycinnamoylamino)-N-[2-(2-hydroxyethoxy)ethyl]benzamide], the IC50 was 69 µM. `COc1ccc(/C=C/C(=O)Nc2ccccc2C(=O)NCC2CCCCC2)cc1OC` [Compound 59, (E)-N-Cyclohexylmethyl-2-(3,4-dimethoxycinnamoylamino)benzamide] gave an IC50 of 4 µM. `CCOc1cccc(/C=C/C(=O)Nc2ccccc2C(N)=O)c1` [Compound 1, (E)-2-(3-Ethoxycinnamoylamino)benzamide] showed an IC50 of 2 µM. With `COc1ccc(C=C(C#N)C(=O)Nc2ccccc2C(N)=O)cc1OC` [Compound 52, 2-(α-Cyano-3,4-dimethoxycinnamoylamino)benzamide] the IC50 was 117 µM. Work on `COc1ccc(NC(=O)/C=C/c2ccc(OC)c(OC)c2)c(C(N)=O)c1` [Compound 67, (E)-2-(3,4-Dimethoxycinnamoylamino)-5-methoxybenzamide] yielded an IC50 of 57 µM. Work on `CCOC(=O)c1ccccc1/C=C/C(=O)Nc1ccccc1C(N)=O` [Compound 3, (E)-2-(2-Ethoxycarbonylcinnamoylamino)benzamide] yielded an IC50 of 46 µM. In the case of `CCOc1ccc(/C=C/C(=O)Nc2cc(OC)c(OC)cc2C(N)=O)cc1OC` [Compound 65, (E)-4,5-Dimethoxy-2-(4-ethoxy-3-methoxycinnamoylamino)benzamide], the IC50 is reported as 12 µM. Compound `CCOc1ccc(/C=C/C(=O)Nc2cc(OC)c(OC)cc2C(=O)NCCO)cc1OC` [Compound 61, (E)-4,5-Dimethoxy-2-(4-ethoxy-3-methoxycinnamoylamino)-N-(2-hydroxyethyl)benzamide] has an IC50 of 45 µM.

Source: patent EP0855387A1, “2-ACYLAMINOBENZAMIDE DERIVATIVES AND PREVENTIVE AND REMEDY FOR DISEASES CAUSED BY THE SUPERMULTIPLICATION OF VASCULAR INTIMAL CELLS” (KISSEI PHARMACEUTICAL CO., LTD., priority 1995, dated 1997)
